According to US7776572B2, “Method for reducing loss of enzyme activity during storage” (Corning Incorporated, priority 1996, dated 2010):

Experiments:
HRP-Goat A'Mouse IgG = assay: Enzymatic determination of protein binding to coated medium binding polystyrene plate; details: coated medium binding PS; versus uncoated high binding polystyrene plate; absorbance 405 nm
Protocol: The surfactants were coated onto a medium binding polystyrene plate (Corning Costar No. 2587) as described in Material and Methods. A medium binding polystyrene plate (Corning Costar No. 2587) and a high binding polystyrene plate (Corning Costar No. 2581) were used as controls.
(a) HRP-Goat A'Mouse IgG: Kirkegaard & Perry Laboratories, Inc. Catalog No. 074-1806. Stock solution: 0.5 mg/ml; working concentration: 0.04 μg/ml. The working concentration was obtained by adding 11 μl of the stock solution per 25 mls of PBS pH 7.4 to produce a work stock (WS), and then diluting 1:6 (i.e., 10 mls WS+50 mls PBS pH 7.4).
(1) 100 μl-well of HRP-Goat A'Mouse IgG at a concentration of 0.04 μg/ml were added to the test wells and incubated for 1 hour at room temperature.
(2) The wells were then washed 5 times with the 1M wash solution. Each wash include a 5 minute soak followed by decanting.
(3) 100 μl/well of substrate (30 mls ABTS+30 mls H2O2) were added to the test wells and incubated for 15 minutes at room temperature in the dark.
(4) 100 μl/well of stopping solution (1% SDS) were added to the test wells.
(5) The plates were then shaken and read at 405 nm.
(6) Reduction in binding was determined by comparing the absorbance measured in step (5) with the absorbance measured for a high binding polystyrene plate which had not been treated with a non-ionic surfactant but otherwise subjected to steps (1) to (5).

Horse IgG = assay: Protein binding by colloidal gold staining, coated medium binding polystyrene plates; details: coated medium binding PS; IgG 10 μg/ml, pH 9.4
Protocol: Except where indicated, the non-ionic surfactants were applied to the hydrophobic surfaces being tested as a 0.1% (weight/volume) solution in isopropanol. A sufficient amount of coating solution was used to cover the surface being testing with a thin layer of the solution (e.g., 25 μl of the solution per well for a standard 24-well plate). In some cases, the solution was applied to surface by spraying; in others, it was poured onto the surface (into the well). Except where indicated, coated samples were either dried at 70° C. for 30 minutes in an air circulated oven or dried at room temperature overnight to evaporate the isopropanol.
Protein binding was determined in some examples using a colloidal gold straining procedure. In accordance with this procedure, colloidal gold becomes electrostatically attached to bound protein and is detected by measuring absorbance at 550 nanometers. Bio-Rad Laboratories' Colloidal Gold Total Protein Stain was used for this purpose, with absorbance being measured with a Cambridge Technologies Plate Reader (No. 7520).
The surfactants were coated onto medium binding polystyrene plates (Corning Costar No. 2587) as described in Material and Methods.
The plates were incubated with IgG as follows: 0.1 ml of Horse IgG (Pierce Labs) at a working concentration of 10 μg/ml in 0.10M NaHCO3 buffer (pH9.4) were added to each well, incubated 30 minutes on a rocker table, and rinsed with dI H2O. The plates were gold stained overnight (0.3 ml/well), rinsed in dI H2O, air dried, and absorbance was measured at 550 nm.

bound protein = assay: Colloidal gold staining of bound protein after MDCK culture in media containing 5% FBS, visual; details: colloidal gold after cell culture, visual observation
In short: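 Polystyrene wells coated with non-ionic surfactants, gamma-sterilized at 1.5 Mrad, seeded with 5.6×10^4 MDCK cells per well in medium with 5% FBS and cultured 2 days at 37 °C, 5% CO2. After fixing, bound protein detected by colloidal gold staining; visual assessment only.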

MDCK cells = assay: Cytotoxicity of extracts of coated plates; format: cell-based; details: media extract of coated plates (37° C., 48 hours), MDCK 72 hours, Gram Crystal Violet
Protocol: Cytotoxicity experiments were performed using MDCK cells. The non-ionic surfactants tested were Pluronic L-121, L-122, and P-123; Span 80 and 85; and Brij 30, 72 and 93. These molecules were coated onto 24-well plates (Corning Costar #9447) from 0.1% (w/v) in isopropanol. Untreated polystyrene and normal tissue culture treated polystyrene (Corning Costar #25820) 24-well plates were used as controls. All plates were incubated at 37° C. for 48 hours with 2 ml/well of complete DMEM media containing 10% Fetal Bovine Serum (FBS). This incubation was performed in order to extract any potentially toxic compounds from the coated surface into the cell growth serum. The FBS solutions were then transferred to tissue culture treated polystyrene and each well was inoculated with ≈2×10^4 cells/well of MDCK cells, and then incubated at 37° C. for 72 hours in a 5% CO2 atmosphere. Cells were then stained with Gram Crystal Violet.

BSA = assay: Polymer blends molded into petri dishes, BSA binding by colloidal gold; details: for BSA or FBS protein binding: blend in polypropylene or EVA
Protocol: Low binding non-ionic surfactant molecules were blended at 5% (except as noted in Table 13) into a base polymer using a twin screw extruder, then injection molded into the shape of 35 mm petri dishes. Proteins tested were BSA and Fetal Bovine Serum (FBS). Protein binding was determined using a colloidal gold staining procedure as described above. In the case of the polypropylene and EVA blends, a silver enhancer was used (Sigma Chem. Co., St, Louis, Mo., Kit #SE-100).

Fetal Bovine Serum (FBS) = assay: Polymer blends molded into petri dishes, FBS protein binding by colloidal gold
IgG = assay: Coating durability using water washes, IgG binding by colloidal gold; details: for Absorbance (550 nm) Initial: coated polystyrene, no water wash; for Absorbance (550 nm) 1 Time 1 hr 23° C. / Absorbance (550 nm) 1 Time 24 hr 23° C. / Absorbance (550 nm) 1 Time 24 hr 37° C. / Absorbance (550 nm) 1 Time 24 hr 70° C.: dI H2O wash 1 time; for Absorbance (550 nm) 6 Times 30 min each 23° C.: dI H2O wash 6 times
In short: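 24-well polystyrene plates coated with surfactants; durability tested by water washes on a rocker. IgG incubated 30 minutes at 23° C. with rocking, then rinsed 3× with water.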

[1] = blended at 1% into ethylene vinyl acetate
[2] = blended at 5% into ethylene vinyl acetate, silver enhancer
[3] = blended at 5% into polypropylene, silver enhancer

Bound Protein Absorbance (550 nm) BSA (BSA; blended at 5% into polystyrene)	Bound Protein Absorbance (550 nm) FBS (Fetal Bovine Serum (FBS); blended at 5% into polystyrene)	Compound	% Reduction in Protein Binding (HRP-Goat A'Mouse IgG)	IgG Protein Binding Absorbance (550 nm) (Horse IgG)	Visual Color Upon Protein Staining (bound protein)	cell growth and morphology (MDCK cells)	BSA or FBS protein binding (BSA)	Bound Protein Absorbance (550 nm) BSA (BSA; [1])	Bound Protein Absorbance (550 nm) BSA (BSA; [2])	Bound Protein Absorbance (550 nm) BSA (BSA; [3])	Bound Protein Absorbance (550 nm) FBS (Fetal Bovine Serum (FBS); [1])	Bound Protein Absorbance (550 nm) FBS (Fetal Bovine Serum (FBS); [2])	Bound Protein Absorbance (550 nm) FBS (Fetal Bovine Serum (FBS); [3])	Absorbance (550 nm) Initial (IgG)	Absorbance (550 nm) 1 Time 1 hr 23° C. (IgG)	Absorbance (550 nm) 1 Time 24 hr 23° C. (IgG)	Absorbance (550 nm) 1 Time 24 hr 37° C. (IgG)	Absorbance (550 nm) 1 Time 24 hr 70° C. (IgG)	Absorbance (550 nm) 6 Times 30 min each 23° C. (IgG)
0.007	0.015	CCCCCCCC/C=C\CCCCCCCCOCCOCCO [PEO(2) OLEYL ETHER]	99.9%	0.00	None	confluent cell growth with normal cell morphology	no detectable	0.000	0.000	0.000	0.291	0.000	0.000						
		CCCCCCCCCCCCOCCOCCOCCOCCO [PEO(4) LAURYL ETHER]	99.3%	0.00	None	confluent cell growth with normal cell morphology													
		PEO(4) SORBITOL MONO-STEARATE	99.5%	0.00	None					0.016			0.057	0.00	0.00	0.02	0.10	0.10	0.10
		PEO(20) SORBITOL TRI-STEARATE	99.7%	0.00	None									0.00	0.00	0.02	0.10	0.10	0.10
		SORBITOL MONO-OLEATE	92.7%	0.00		confluent cell growth with normal cell morphology	no detectable	0.147	0.000	0.000	0.371	0.000	0.000	0.00	0.00	0.00	0.00	0.00	0.00
